In the NIST ThermoML archive (doi:10.1021/je7001946):

How the values were obtained:
[1] = 101.3 kPa, Liquid
[2] = mn = molality of the nth substance listed, in mol/kg; settings: 101.3 kPa, Liquid; for speed of sound: Pulse-echo method

CC#N [acetonitrile]
[1]
Settings	mass density
288.15 K	787.303 kg/m3 [middle of 5 runs]
293.15 K	781.923 kg/m3 [middle of 5 runs]
298.15 K	776.525 kg/m3 [middle of 5 runs]
303.15 K	771.097 kg/m3 [middle of 5 runs]
308.15 K	765.64 kg/m3 [middle of 5 runs]
313.15 K	760.151 kg/m3 [middle of 5 runs]
323.15 K	749.07 kg/m3 [middle of 5 runs]

Settings	speed of sound [m/s]
[1], 298.15 K, Pulse-echo method	1278.3

CC#N [acetonitrile] + [Br-].[Br-].[Mn+2]
[2], m2 = 0
Settings	mass density [kg/m3]
288.15 K	787.299
293.15 K	781.923
298.15 K	776.525
303.15 K	771.097
308.15 K	765.64
313.15 K	760.148
323.15 K	749.055

CC#N [acetonitrile] + [Br-].[Br-].[Zn+2]
[2], m2 = 0
Settings	mass density [kg/m3]
288.15 K	787.313
293.15 K	781.935
298.15 K	776.535
303.15 K	771.106
308.15 K	765.65
313.15 K	760.159
323.15 K	749.07

CC#N [acetonitrile] + [Br][Co][Br]
[2], m2 = 0
Settings	mass density [kg/m3]	speed of sound [m/s]
288.15 K	787.315	–
293.15 K	781.939	–
298.15 K	776.538	1278.3
303.15 K	771.112	–
308.15 K	765.653	–
313.15 K	760.164	–
323.15 K	749.073	–

CC#N [acetonitrile] + [Cl-].[Cl-].[Zn+2]
[2], m2 = 0
Settings	mass density [kg/m3]
288.15 K	787.303
293.15 K	781.922
298.15 K	776.522
303.15 K	771.095
308.15 K	765.637
313.15 K	760.151
323.15 K	749.071

CC#N [acetonitrile] + [Cl][Co][Cl]
[2], m2 = 0
Settings	mass density [kg/m3]
288.15 K	787.297
293.15 K	781.919
298.15 K	776.518
303.15 K	771.09
308.15 K	765.631
313.15 K	760.142
323.15 K	749.056

[Cl][Co][Cl] [cobalt chloride] + CC#N
[2]
Settings	mass density, 288.15 K [kg/m3]	mass density, 293.15 K [kg/m3]	mass density, 298.15 K [kg/m3]	mass density, 303.15 K [kg/m3]	mass density, 308.15 K [kg/m3]	mass density, 313.15 K [kg/m3]	mass density, 323.15 K [kg/m3]	speed of sound, 298.15 K [m/s]
m1 = 0.08764	795.418	790.014	784.59	779.137	773.654	768.139	756.997	1279.8
m1 = 0.1171	798.185	792.779	787.348	781.889	776.401	770.881	759.736	1280.5
m1 = 0.146	800.89	795.475	790.038	784.571	779.078	773.545	762.939	1281.1
m1 = 0.1743	803.599	798.184	792.742	787.274	781.773	776.24	765.073	1281.8
m1 = 0.2031	806.356	800.934	795.487	790.011	784.51	778.973	767.796	1282.5
m1 = 0.2318	809.121	803.697	798.244	792.763	787.256	781.714	770.528	1283.2
m1 = 0.26	811.836	806.407	800.953	795.467	789.954	784.407	773.206	1284
m1 = 0.2873	814.493	809.058	803.595	798.109	792.59	787.039	775.843	1284.8

[Cl-].[Cl-].[Zn+2] [zinc chloride] + CC#N
mass density [kg/m3], [2]
Settings	m1 = 0.05257	m1 = 0.06571	m1 = 0.07576	m1 = 0.08438	m1 = 0.1077	m1 = 0.128	m1 = 0.1487	m1 = 0.1684	m1 = 0.1902	m1 = 0.2114
288.15 K	791.935	793.095	794	794.764	796.85	798.676	800.536	802.335	804.302	806.244
293.15 K	786.551	787.712	788.618	789.38	791.469	793.289	795.155	796.955	798.922	800.862
298.15 K	781.15	782.313	783.217	783.985	786.068	787.887	789.746	791.541	793.519	795.456
303.15 K	775.724	776.886	777.79	778.553	780.64	782.455	784.317	786.115	788.091	790.032
308.15 K	770.266	771.431	772.33	773.096	775.184	777.003	778.858	780.661	782.635	784.575
313.15 K	764.781	765.94	766.841	767.607	769.697	771.516	773.372	775.165	777.148	779.089
323.15 K	753.694	754.859	755.76	756.526	758.618	760.435	762.295	764.103	766.072	768.014
